Target: Receptor tyrosine-protein kinase erbB-2 (Homo sapiens, UniProt P04626)
Test: HER2 Degradation Assay with BT-474 Cell Line
Text: HER2 has emerged as a key target for anticancer drugs due to its intrinsic involvement in the phosphatidylinositol-3-kinase-Akt/protein kinase B (PI3 K-Akt) and the mitogen-activated protein kinase (MAPK) pathways, both of which suppress apoptosis and promote tumor cell survival, gene transcription, angiogenesis, cellular proliferation, migration, mitosis, and differentiation. The degradation of HER2 is a measure of efficacy of anticancer therapeutics that target Hsp90. Accordingly, the SDC-TRAP molecules of the invention that comprise a binding moiety that binds Hsp90 were tested in the following HER2 degradation assay.BT-474 cells (human breast cancer cell line ATCC HTB-20) were obtained from ATCC and seeded into 12-well tissue culture plates at 0.2x106/1.8 mL/well. […] Each test compound was titrated in 4-fold dilutions from 5 μM to 78 nM with DMSO and 200 μL of the titration was added to each well of the cell plate. The DMSO final concentration was 0.2%. Cells were incubated overnight at 37° C. in 5% CO2.Media was decanted from the plate, cells were washed 1x in PBS. 400 μL trypsin (EDTA) per well was added, and the cells were incubated for 2 to 3 minutes. […] The cytometer readout was normalized and the potency of each compound was evaluated with IC50 calculated with XLfit software.

Receptor tyrosine-protein kinase erbB-2, sequence (P04626 whole entry): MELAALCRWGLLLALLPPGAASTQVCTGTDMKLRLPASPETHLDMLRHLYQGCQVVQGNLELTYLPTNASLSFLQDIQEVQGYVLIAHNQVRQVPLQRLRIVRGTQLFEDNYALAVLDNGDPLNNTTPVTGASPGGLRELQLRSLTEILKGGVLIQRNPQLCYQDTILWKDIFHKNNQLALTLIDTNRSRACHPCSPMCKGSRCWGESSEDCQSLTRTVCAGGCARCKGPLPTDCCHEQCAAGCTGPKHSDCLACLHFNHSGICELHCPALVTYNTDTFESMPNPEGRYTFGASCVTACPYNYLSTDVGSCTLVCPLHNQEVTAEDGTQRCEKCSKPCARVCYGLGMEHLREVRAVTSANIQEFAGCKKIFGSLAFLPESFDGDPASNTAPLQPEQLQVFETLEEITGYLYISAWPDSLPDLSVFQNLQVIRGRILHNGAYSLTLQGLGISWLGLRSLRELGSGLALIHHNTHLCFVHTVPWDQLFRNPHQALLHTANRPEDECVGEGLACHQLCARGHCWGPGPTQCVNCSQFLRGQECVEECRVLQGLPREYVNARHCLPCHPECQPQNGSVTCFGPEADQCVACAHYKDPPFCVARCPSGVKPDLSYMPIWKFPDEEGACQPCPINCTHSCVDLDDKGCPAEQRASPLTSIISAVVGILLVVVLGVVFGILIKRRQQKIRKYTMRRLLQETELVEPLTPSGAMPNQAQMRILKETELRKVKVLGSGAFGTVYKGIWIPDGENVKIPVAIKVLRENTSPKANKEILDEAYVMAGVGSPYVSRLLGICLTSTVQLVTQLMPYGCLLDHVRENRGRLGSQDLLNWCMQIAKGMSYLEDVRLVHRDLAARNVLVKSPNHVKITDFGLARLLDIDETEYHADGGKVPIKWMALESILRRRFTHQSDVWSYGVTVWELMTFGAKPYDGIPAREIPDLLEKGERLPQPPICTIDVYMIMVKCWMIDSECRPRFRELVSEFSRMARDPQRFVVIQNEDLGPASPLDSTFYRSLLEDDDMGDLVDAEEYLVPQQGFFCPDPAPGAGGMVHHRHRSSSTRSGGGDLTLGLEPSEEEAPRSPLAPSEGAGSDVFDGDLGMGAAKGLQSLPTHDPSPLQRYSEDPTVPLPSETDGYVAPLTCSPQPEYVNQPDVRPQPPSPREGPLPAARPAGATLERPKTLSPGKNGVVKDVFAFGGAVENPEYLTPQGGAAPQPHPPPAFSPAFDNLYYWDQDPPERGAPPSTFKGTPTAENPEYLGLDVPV

IC50: 117 nM
Compound: CC(C)C[C@H](NC(=O)[C@H](Cc1ccccc1)NC(=O)c1cnccn1)B1O[C@H]2C[C@H]3C[C@H](C3(C)C)[C@@]2(CC(=O)N2CCC(CCn3ccc4cc(N(C(=N)c5cc(C(C)C)c(O)cc5O)C(N)=O)ccc43)CC2)O1 [US10117944, Compound SDC-TRAP-0245]

— BindingDB's records for patent US10117944 (Madrigal Pharmaceuticals, 2018)
